Legend:
[1] = system: Staphylococcus aureus, methicillin susceptible; assay: Standard microdilution susceptibility test, clinical isolates; assay type: cell-based; details: 10 clinical isolates
[2] = system: Staphylococcus aureus, methicillin resistant; assay: as above; assay type: cell-based; details: 10 clinical isolates
[3] = system: Coagulase-negative Staphylococus sp., methicillin resistant; assay: as above; assay type: cell-based; details: 10 clinical isolates
[4] = system: Enterococcus sp., vancomycin susceptible; assay: as above; assay type: cell-based; details: 20 clinical isolates
[5] = system: Bacillus subtilis ATCC 6633; assay: Microdilution MIC, ATCC reference strains; assay type: cell-based
Method: (§1) Identification and characterization of resistance patterns of these bacteria were performed by standard methods.
(§2) When forming the test groups we attached great importance to the increasing incidence of drug-resistant microbes causing therapeutic problems. Most important of them are methicillin-resistant Staphylococcus aureus (MRSA), methicillin-resistant coagulase-negative Staphylococcus spp. (MRCoNS), penicillin-resistant Streptococcus pneumoniae (pneumococcus), vancomycin-resistant Enterococcus spp. (VRE). Pneumococcus isolates represented various serotypes, VRE isolates belonged to various species. Moreover, vancomycin-resistance of VRE isolates was based on different genetic backgrounds. Antibiotic-resistant strains were also represented among international reference strains, for example methicillin-resistant Staphylococcus aureus ATCC 43300 (MRSA), Staphylococcus aureus with decreased vancomycin susceptibility ATCC 700698 and 700699 (vancomycin intermediate Staphylococcus aureus—VISA), mupirocin-resistant Staphylococcus aureus ATCC BAA1708 and vancomycin-resistant Enterococcus faecalis ATCC 51299 (VRE).
(§3) Susceptibility tests were performed according to the standard microdilution method (NCCLS (CLSI) M7-A7).
(§4) The lowest concentration at which no bacterial growth was observed after the incubation period is the Minimal Inhibitory Concentration (MIC). The MIC value is inversely proportional to the antimicrobial efficacy. MIC values of antimicrobial agents can differ by species or even by bacterial strains within species.

[6] = system: Enterococcus faecalis ATCC 29212; assay: Microdilution MIC, ATCC reference strains; assay type: cell-based
Method: as §1, §2, §3, §4

[7] = system: Enterococcus faecalis ATCC 51299 (VRE); assay: Microdilution MIC, ATCC reference strains; assay type: cell-based
Method: as §1, §2, §3, §4

[8] = system: Enterococcus hirae ATCC 8043; assay: Microdilution MIC, ATCC reference strains; assay type: cell-based
Method: as §1, §2, §3, §4

[9] = system: Escherichia coli ATCC 25922; assay: Microdilution MIC, ATCC reference strains; assay type: cell-based
Method: as §1, §2, §3, §4

[10] = system: Staphylococcus aureus ATCC 25923; assay: Microdilution MIC, ATCC reference strains; assay type: cell-based
Method: as §1, §2, §3, §4

[11] = system: Staphylococcus aureus ATCC 29213; assay: Microdilution MIC, ATCC reference strains; assay type: cell-based
Method: as §1, §2, §3, §4

[12] = system: Staphylococcus aureus ATCC 43300 (MRSA); assay: Microdilution MIC, ATCC reference strains; assay type: cell-based
Method: as §1, §2, §3, §4

[13] = system: Staphylococcus aureus ATCC 700698 (VISA); assay: Microdilution MIC, ATCC reference strains; assay type: cell-based
Method: as §1, §2, §3, §4

[14] = system: Staphylococcus aureus ATCC 700699 (VISA); assay: Microdilution MIC, ATCC reference strains; assay type: cell-based
Method: as §1, §2, §3, §4

[15] = system: Staphylococcus aureus ATCC BAA1708 (mupirocin-resistant); assay: Microdilution MIC, ATCC reference strains; assay type: cell-based
Method: as §1, §2, §3, §4

Streptococcus ATCC 49619 = assay: Microdilution MIC, ATCC reference strains; assay type: cell-based
Method: as §1, §2, §3, §4

Diphteroides 8264 = details: cited from earlier work
[16] = system: Staphylococcus saprophyticus 8454; details: cited from earlier work
[17] = system: Staphylococcus aureus ATCC 25923; details: cited from earlier work
[18] = system: Bacillus subtilis ATCC 6633; details: cited from earlier work
S. aureus ATCC 25923 = details: by Bryskier; cited from earlier work
S. pyogenes = details: by Bryskier; cited from earlier work
Streptococcus mitis = details: by Bryskier; cited from earlier work
Propionibacterium acnes = details: by Bryskier; cited from earlier work
Gram-negative species = details: crystalline primycin and amorphous predecessor; Uri and Actor 1979; cited from earlier work
[19] = system: erythromycin-sensitive Staphylococcus spp. strains; details: collection of 279 strains; cited from earlier work

Substance: Primycin
- MIC 50% [1]: 0.06 µg/mL
- MIC 90% [1]: 0.06 µg/mL
- MIC Range [1]: 0.06-0.06 mg/L
- Ratio of Sensitive/Total [1]: 10/10
- MIC 50% [2]: 0.06 µg/mL
- MIC 90% [2]: 0.06 µg/mL
- MIC Range [2]: 0.06-0.06 mg/L
- Ratio of Sensitive/Total [2]: 10/10
- MIC 50% [3]: 0.06 µg/mL
- MIC 90% [3]: 0.06 µg/mL
- MIC Range [3]: 0.03 to 0.06 µg/mL
- Ratio of Sensitive/Total [3]: 10/10
- MIC 50% [4]: 0.5 µg/mL
- MIC 90% [4]: 0.5 µg/mL
- MIC Range [4]: 0.5 to 1 µg/mL
- Ratio of Sensitive/Total [4]: 20/20
- Primycin MIC [5]: 0.03 µg/mL
- Primycin MIC [6]: 0.5 µg/mL
- Primycin MIC [7]: 1 µg/mL
- Primycin MIC [8]: 0.5 µg/mL
- Primycin MIC [9]: >64 µg/mL
- Primycin MIC [10]: 0.06 µg/mL
- Primycin MIC [11]: 0.06 µg/mL
- Primycin MIC [12]: 0.06 µg/mL
- Primycin MIC [13]: 0.06 µg/mL
- Primycin MIC [14]: 0.125 µg/mL
- Primycin MIC [15]: 0.06 µg/mL
- Primycin MIC (Streptococcus ATCC 49619): 0.5 µg/mL
- MIC (Diphteroides 8264): 50.0 µg/mL
- MIC [16]: 0.39 µg/mL
- MIC [17]: 25.0 µg/mL
- MIC [18]: 0.39 µg/mL
- MIC (S. aureus ATCC 25923): 25 µg/mL
- MIC (S. pyogenes): 1.56 µg/mL
- MIC (Streptococcus mitis): 50 µg/mL
- MIC (Propionibacterium acnes): <0.1 µg/mL
- efficacy against Gram-negative species (Gram-negative species): ineffective
- share of strains primycin-resistant (MIC≧5 mg/L) [19]: 1%

From US20140303105A1, “Primycin and components thereof for use in the treatment or prevention of infections caused by specific pathogens” (PANNONPHARMA GYÓGYSZERGYÁRTÓ ZRT., priority 2011, published 2014)
